The subject of one assay is coronin 1 promoter. The assay can be described thus: EC50 analysis for coronin 1 promoter driven GFP inhibition by flow cytometry in RBL cells. Type of assay: cell-based. Conditions: RBL, RBL cells, 48-65 h, flow cytometry. Put shortly:
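RBL cells carrying coronin 1 promoter–GFP, mixed with CMV promoter–RFP cells, exposed to compounds 48–65 h and analyzed by flow cytometry with live/dead staining. EC50 derived from GFP inhibition, with RFP and viability as nonspecific and toxicity counter-reads; cycloheximide and DMSO as controls, relative potency normalized to a reference compound.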
In general terms: Flow cytometry measures light scatter and fluorescence of single cells or particles in a stream.

A further assay has as its system RBL cells. The assay can be described thus: Cell viability by live-dead staining (cytotoxicity), flow cytometry. It is filed as cell-based, Rat. Conditions: Rattus norvegicus, RBL, cell viability via live/dead staining, 48-65 h, read-out: EC50 Toxicity. Put shortly:
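RBL cells with coronin 1 promoter-GFP, mixed 1:1 with CMV promoter-RFP RBL cells, exposed to compound 48-65 h. Flow cytometry read RFP fluorescence for non-specific promoter inhibition and live-dead staining for cytotoxicity. EC50 values derived; cycloheximide positive control, DMSO negative.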

The subject of the next assay is coronin 1. Kind of assay: Western blotting of coronin 1 protein levels in RBL cells. It is filed as cell-based, Rat. Conditions: 2 μg/ml, RBL cells. As to the method: buffer with 0.2% SDS containing protease and phosphatase inhibitors (Roche) at 4° C., followed by protein determination (BCA, Pierce) and SDS-PAGE with equal protein amounts transferred onto nitrocellulose and probed using antibodies against the indicated proteins (actin and coronin 1) followed by HRP-labeled secondary antibodies and developed using an enhanced chemi-luminescence imager (Fuji) (FIG. 3C).
(In western blotting, separated proteins are transferred to a membrane and probed.)

In assay [1] the test system is human peripheral blood mononuclear cells. Kind of assay: Mixed Lymphocyte Reaction, tritiated-thymidine uptake. Type of assay: cell-based. Conditions: human PBMCs. The protocol: For assessment of the suppression of alloresponses by coronin 1 modulators using the MLR methodology, heparinized or EDTA treated blood or buffy coat from two healthy volunteers were enriched for […] using the standard Histopaque 1.077 gradient centrifugation methodology as detailed above. Post enrichment, one of the donors PBMCs was considered as “responders” and the other as “stimulators”. The “stimulators” were treated with mitomycin to prevent proliferation while the “responders” PBMCs were left untreated. The stimulator and responder PBMCs were washed extensively with plain RPMI and subsequently counted and seeded in 96 well plate at a density of 0.1 million cells/well each (responders plus stimulators=0.2 million cells/well) in a volume of 200 μl RPMI-1640 (Sigma) containing 1× penicillin and streptomycin (Gibco), 2 mM L-glutamine (Gibco) and 10% heat inactivated FCS (PAA) along with the vehicle (DMSO) or coronin 1 expression inhibitor at indicated concentrations. Cells were incubated in a 37° C. humidified incubator with a 5% CO2 for five days with the expression inhibitor and at the end of which 0.5 μCi of tritiated thymidine was added to all wells and further incubated for 20 h followed by harvesting on a GF/C filter and measuring the DNA-incorporated counts using a Packard instrument as a measure of immune responses (FIG. 10).

For another assay, the target named is T1, BRD3 (Rattus norvegicus, UniProt D3ZWU1).
T1 construct: endogenous in cells; host or cells: RBL (rat basophil leukemia) cells
The assay can be described thus: Thermal Proteome Profiling in RBL cells: BRD3. It is filed as binding. Particulars: 6 μM. The protocol: To identify the target of the coronin 1 modulatory compounds, Thermal Proteome Profiling (TPP), a methodology based on the property of proteins to alter their thermal stability upon interactions with small molecules (Savitski, M. M., et al., Science, 2014. 346(6205): p. 1255784), was employed. To that end, Rat Basophil Leukemia (RBL) cells were incubated with the compound 12e followed by gradient thermal denaturation (37/41/44/47/50/53/56/59/63/67 degree C.) and mass spectrometric assessment of proteins that get either stabilized or destabilized upon interacting with the compound performed. […]
Thermal proteome profiling was performed as described (Savitski, M. M., et al., Science, 2014. 346(6205): p. 1255784). In brief, RBL cells (50 millions/condition) were incubated with the vehicle DMSO or the compound 12e at 6, 3 or 0 μM concentration for a period of 1 h at the end of which, the cells were washed in ice cold PBS, counted and subjected to thermal denaturation (37/41/44/47/50/53/56/59/63/67° C.) for 3 minutes, lysed by freeze thawing in liquid nitrogen and supernatant containing the soluble proteins separated by centrifugation at 100,000 g for 30 minutes. Equal volumes of the supernatant were taken, subjected to tryptic digestion and labelling with 10 plex-TMT (Thermo Fisher) and the labelled peptides analyzed and quantitated using mass spectrometry (FIG. 13).

For another assay, the target named is T2, BRD3 BD1 (Homo sapiens, UniProt Q15059).
T2 construct: T7 phage display (bromodomain fused to phage); purchased Eurofins (bromoscan service); host or cells: E. coli host derived from BL21, T7 phage
Kind of assay: Bromoscan (Eurofins) binding: BRD3 BD1. As to the method:
(§1) Following the initial data from TPP, to further confirm the interaction of compound with BRD3, an in-vitro assay system named bromoscan (Eurofins) was employed to analyse the affinity of the (4S,7R)-configurated compound 12e against the two bromodomains of BRD3.
T7 phage strains displaying bromodomains were grown in 24-well blocks in an E. coli host derived from the BL21 strain. E. coli were grown to log-phase and infected with T7 phage from a frozen stock (multiplicity of infection=0.4) and incubated with shaking at 32° C. until lysis (90-150 minutes). The lysates were centrifuged (5,000×g) and filtered (0.2 μm) to remove cell debris. Streptavidin-coated magnetic beads were treated with biotinylated small molecule or acetylated peptide ligands for 30 minutes at room temperature to generate affinity resins for bromodomain assays. The liganded beads were blocked with excess biotin and washed with blocking buffer (SeaBlock (Pierce), 1% BSA, 0.05% Tween 20, 1 mM DTT) to remove unbound ligand and to reduce non-specific phage binding. […] Test compounds were prepared as 1000× stocks in 100% DMSO. Kds were determined using an 11-point 3-fold compound dilution series with one DMSO control point. All compounds for Kd measurements are distributed by acoustic transfer (non-contact dispensing) in 100% DMSO. […] The bromodomain concentration in the eluates was measured by qPCR. […]

For a further assay, the target named is T3, BRD3 BD2 (Homo sapiens, UniProt Q15059).
T3 construct: T7 phage display (bromodomain fused to phage); purchased Eurofins (bromoscan service); host or cells: E. coli host derived from BL21, T7 phage
Kind of assay: Bromoscan (Eurofins) binding: BRD3 BD2. As to the method:
as §1
T7 phage strains displaying bromodomains were grown in 24-well blocks in an E. coli host derived from the BL21 strain. E. coli were grown to log-phase and infected with T7 phage from a frozen stock (multiplicity of infection=0.4) and incubated with shaking at 32° C. until lysis (90-150 minutes). The lysates were centrifuged (5,000×g) and filtered (0.2 μm) to remove cell debris. Streptavidin-coated magnetic beads were treated with biotinylated small molecule or acetylated peptide ligands for 30 minutes at room temperature to generate affinity resins for bromodomain assays. The liganded beads were blocked with excess biotin and washed with blocking buffer (SeaBlock (Pierce), 1% BSA, 0.05% Tween 20, 1 mM DTT) to remove unbound ligand and to reduce non-specific phage binding. […] Test compounds were prepared as 1000× stocks in 100% DMSO. Kds were determined using an 11-point 3-fold compound dilution series with one DMSO control point. All compounds for Kd measurements are distributed by acoustic transfer (non-contact dispensing) in 100% DMSO. The compounds were then diluted directly into the assays such that the final concentration of DMSO was 0.09%. All reactions performed in polypropylene 384-well plates. Each was a final volume of 0.02 ml. The assay plates were incubated at room temperature with shaking for 1 hour and the affinity beads were washed with wash buffer (1×PBS, 0.05% Tween 20). The beads were then resuspended in elution buffer (1×PBS, 0.05% Tween 20, 2 μM non-biotinylated affinity ligand) and incubated at room temperature with shaking for 30 minutes. The bromodomain concentration in the eluates was measured by qPCR. The bromoscan analysis was done at Eurofins (FIG. 15).

As a reminder, the EC50 is the midpoint of the concentration-response curve. The term Kd denotes the equilibrium constant for the complex coming apart.

T3 sequence (Q15059 306-415 limits assumed): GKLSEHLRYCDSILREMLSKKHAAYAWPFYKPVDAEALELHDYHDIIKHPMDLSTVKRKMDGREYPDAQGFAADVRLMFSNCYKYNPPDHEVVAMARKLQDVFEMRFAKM
T2 sequence (Q15059 34-140 limits assumed): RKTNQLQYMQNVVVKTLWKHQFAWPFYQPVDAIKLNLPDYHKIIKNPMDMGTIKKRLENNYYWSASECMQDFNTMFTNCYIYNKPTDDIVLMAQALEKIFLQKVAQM
T1 sequence (D3ZWU1 1-725): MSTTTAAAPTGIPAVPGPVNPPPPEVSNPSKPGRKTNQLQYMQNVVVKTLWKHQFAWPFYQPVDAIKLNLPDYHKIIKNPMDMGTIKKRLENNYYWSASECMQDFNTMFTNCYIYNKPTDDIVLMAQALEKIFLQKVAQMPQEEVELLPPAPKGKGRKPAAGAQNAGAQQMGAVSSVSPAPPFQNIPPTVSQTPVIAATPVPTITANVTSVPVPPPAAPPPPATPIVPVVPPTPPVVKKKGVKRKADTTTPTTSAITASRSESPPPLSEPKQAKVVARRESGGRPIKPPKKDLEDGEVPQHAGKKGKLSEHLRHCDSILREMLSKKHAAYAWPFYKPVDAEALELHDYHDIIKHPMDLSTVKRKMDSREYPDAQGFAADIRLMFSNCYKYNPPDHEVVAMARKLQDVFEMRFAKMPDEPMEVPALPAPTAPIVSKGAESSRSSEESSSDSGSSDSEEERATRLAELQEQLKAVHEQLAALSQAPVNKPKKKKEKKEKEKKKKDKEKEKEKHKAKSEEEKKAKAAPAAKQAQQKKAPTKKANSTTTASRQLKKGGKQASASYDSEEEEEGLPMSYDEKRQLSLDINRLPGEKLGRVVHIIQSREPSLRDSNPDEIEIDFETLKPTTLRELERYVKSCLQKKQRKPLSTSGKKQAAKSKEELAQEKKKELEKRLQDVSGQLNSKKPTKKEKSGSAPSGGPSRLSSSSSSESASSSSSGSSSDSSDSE

With `COc1ccccc1[C@H]1CC(=O)C2=C(C1)NC(C)=C(C(=O)OC[C@@H]1CCCO1)[C@H]2c1cccc(O)c1` [12e, tetrahydro-2-furanylmethyl (4S, 7R)-4-(3-hydroxyphenyl)-7-(2-methoxyphenyl)-2-methyl-5-oxo-1,4,5,6,7,8-hexahydro-3-quinolinecarboxylate], the results for the EC50 in the assay with coronin 1 promoter and in the assay on RBL cells were 70 nM and above 20 µM, respectively. In the assay on coronin 1, the “coronin 1 depletion by Western blot” value is listed as “showed coronin 1 depletion”. For the same compound, the “Mixed Lymphocyte Responses (tritiated-thymidine uptake)” value in assay [1] is recorded as “inhibition”. At BRD3, the “increase of thermal denaturation of BRD3” value is given as “over four degrees Celsius”. Moreover, the results for the Kd at BRD3 BD1 and at BRD3 BD2 were around 200 nM and around 10 nM, respectively. Also, the “relative affinity for BRD3 bromodomains BD1 and BD2” value at BRD3 BD2 is given as “higher affinity for the BD2 domain”.

The values are drawn from patent publication US20260102387A1, “IMMUNOSUPPRESSIVE COMPOUNDS” (UNIVERSITÄT BASEL, priority 2022, published 2026).
